Test results reported in patent publication US20260144890A1, “ANTIBODY DRUG CONJUGATE COMPRISING NMT INHIBITOR CONJUGATED TO AN ANTIBODY” (MyricX Pharma Limited, priority 2024, published 2026).
Like-named read-outs stand apart in the source and are kept apart here.

Experiments:
SU-DHL-10 cell line = test: Cell cytotoxicity in SU-DHL-10 cell line (CTG, 72 h); format: cell-based; conditions: Homo sapiens, SU-DHL10, 72 h, 72 h treatment
Protocol: Certain NMT inhibitors were tested in the SU-DHL-10 cell line (human B cell lymphoma). Compounds which show efficacy in this assay are expected to be useful as agents for treating or preventing hyperproliferative disorders such as cancer.
Cells were seeded in 96-well microplates and treated with compounds or cisplatin (as a positive control) at 9 increasing concentrations in technical triplicate. […] On day 1, 90 μL of various cell suspensions with the number of cells ranging from 5000-8000 cells/well were seeded into wells of a 96-well plate (Corning). The number of cells to be seeded was previously determined. • 2. All 96-wells plates with cells were placed in an incubator overnight at 37° C. with 5% CO2. • 3. On day 2, cells were observed under a microscope ensuring the cells treated with vehicle control were in good condition. • 4. A dilution series of the test compounds and cisplatin were prepared at 10× the final concentrations required. 10 μL/well of 10× compound solution was added to the corresponding plates. The final volume was 100 μL/well for all the plates. […]
Luminescence was recorded using an EnVision Multi Label Reader. […]
(LumTest article=luminescence in test article treated well; LumNone treated=luminescence in vehicle treated well; LumMedium control=luminescence in a well containing only medium and no cells; LumNone treated−LumMedium control was set as 100%).

[1] = tested on: BT474 breast cancer cells; test: Orthotopic breast cancer xenograft model (BT474); format: in vivo, mouse
Protocol: During the study, body weights were measured three times weekly for all animals. Animals were given Diet Gel for the entire duration on the study.

[2] = tested on: gastric cancer organoid GA0087B; test: Gastric cancer organoid viability (CTG 3D), GA0087B; format: cell-based; parameters: AUC (area under curve): unit not given beside the values
Protocol: (§1) Day −1: Patient derived gastric cancer organoids (PDXOs) are sheared to uniform sizes and the required number of organoids are combined 1:1 with 50% Matrigel to produce the right size of the organoids to perform the screen.
(§2) Day 0: Organoid seeding • 1. Collect organoids from each well by adding 20 μl 100× Dispase solution to each well from a 6-well plate, which contains 2 ml of organoid medium. • 2. Put the plates back in the incubator, 37° C. for 30 min. • 3. Collect organoids from all wells and pipet through a pre-wet 100 μm filter into a 50 ml plastic tube. • 4. Once all wells have been filtered over 100 μm filters, filter the flow though over a pre-wet 20 μm filter. • 5. […]
(§3) • 10. Place screening plates back into the incubator before adding compounds and day 0 reading. […] One is for day 0 reading (TO) and the other for reading at the end point.
(§4) Day 0: Compounds treatment and Day 0 baseline CTG (cell titre glo) reading • 11. […] For day 0 reading plate, add 40 μL of CTG 3D per well and read luminescent signal on Envision plate reader.
(§5) Day 6: Endpoint CTG reading. • 1. Read assay plates for luminescent CTG signal at the end of the assays: add 40 μL of CTG 3D per well by Multidrop dispenser, mix the contents for 5 min on the plate shaker, and incubate the plates for 30 min at room temperature in dark. Read luminescent signal on Envision plate reader. […]

[3] = tested on: gastric cancer organoid GA0091B; test: Gastric cancer organoid viability (CTG 3D), GA0091B; format: cell-based; parameters: AUC (area under curve): unit not given beside the values
Protocol: as §1, §2, §3, §4, §5

[4] = tested on: gastric cancer organoid GA0119B; test: Gastric cancer organoid viability (CTG 3D), GA0119B; format: cell-based; parameters: AUC (area under curve): unit not given beside the values
Protocol: as §1, §2, §3, §4, §5

[5] = tested on: gastric cancer organoid GA6894B; test: Gastric cancer organoid viability (CTG 3D), GA6894B; format: cell-based; parameters: AUC (area under curve): unit not given beside the values
Protocol: as §1, §2, §3, §4, §5

[6] = tested on: gastric cancer organoid GA6866B; test: Gastric cancer organoid viability (CTG 3D), GA6866B; format: cell-based; parameters: unit not given beside the values
Protocol: as §1, §2, §3, §4, §5

[7] = tested on: gastric cancer organoid GA2434B; test: Gastric cancer organoid viability (CTG 3D), GA2434B; format: cell-based; parameters: unit not given beside the values
Protocol: as §1, §2, §3, §4, §5

[8] = tested on: gastric cancer organoid GA0060B; test: Gastric cancer organoid viability (CTG 3D), GA0060B; format: cell-based; parameters: unit not given beside the values
Protocol: as §1, §2, §3, §4, §5

[9] = tested on: gastric cancer organoid GA6815B; test: Gastric cancer organoid viability (CTG 3D), GA6815B; format: cell-based; parameters: AUC (area under curve): unit not given beside the values
Protocol: as §1, §2, §3, §4, §5

[10] = tested on: gastric cancer organoid GA2109B; test: Gastric cancer organoid viability (CTG 3D), GA2109B; format: cell-based; parameters: unit not given beside the values
Protocol: as §1, §2, §3, §4, §5

[11] = tested on: gastric cancer organoid GA0098B; test: Gastric cancer organoid viability (CTG 3D), GA0098B; format: cell-based; parameters: AUC (area under curve): unit not given beside the values
Protocol: as §1, §2, §3, §4, §5

[12] = tested on: gastric cancer organoid GA0429B; test: Gastric cancer organoid viability (CTG 3D), GA0429B; format: cell-based; parameters: unit not given beside the values
Protocol: as §1, §2, §3, §4, §5

[13] = tested on: gastric cancer organoid GA3055B; test: Gastric cancer organoid viability (CTG 3D), GA3055B; format: cell-based; parameters: unit not given beside the values
Protocol: as §1, §2, §3, §4, §5

[14] = tested on: gastric cancer organoid GA6891B; test: Gastric cancer organoid viability (CTG 3D), GA6891B; format: cell-based; parameters: AUC (area under curve): unit not given beside the values
Protocol: as §1, §2, §3, §4, §5

[15] = tested on: gastric cancer organoid GA3102B; test: Gastric cancer organoid viability (CTG 3D), GA3102B; format: cell-based; parameters: unit not given beside the values
Protocol: as §1, §2, §3, §4, §5

[16] = tested on: gastric cancer organoid GA6833B; test: Gastric cancer organoid viability (CTG 3D), GA6833B; format: cell-based; parameters: unit not given beside the values
Protocol: as §1, §2, §3, §4, §5

[17] = tested on: gastric cancer organoid GA6877B; test: Gastric cancer organoid viability (CTG 3D), GA6877B; format: cell-based; parameters: unit not given beside the values
Protocol: as §1, §2, §3, §4, §5

[18] = tested on: VCaP human prostate cancer xenograft; test: VCaP prostate cancer xenograft model; format: in vivo, mouse
Protocol: In this study, 144 mice were inoculated subcutaneously in the right front flank region with 1×10^7 viable VCaP tumour cells resuspended in 0.1 mL of PBS mixed with Matrigel (1:1) for tumour development on Study Day −20. 80 mice were assigned to 8 treatment groups when tumour volumes averaged ˜162.16 mm^3 on Study Day 0. Dosing commenced the following day and all animals were dosed intravenously with ADC Example 4, ifinatamab-deruxtecan (ifinatamab-Dxd) or unconjugated ifinatamab. All mice received two doses of test agent, on Study Day 1 and Study Day 8. The study was terminated on Study Day 30. • The 8 groups were assigned as follows: […]

LNCaP tumours = test: LNCaP prostate cancer xenograft model; conditions: for Day 28 tumour volume (mean ± SEM) / Tumour growth inhibition (TGI, %): IV, Q7D (x3); for Tumour growth inhibition (TGI, %): day 28
Protocol: A total of 84 male NOD SCID mice aged 5-8 weeks and weighing 25-30 g were used for the study.
• Duration of observation: 35 days. • Dosing volume: 5 mL/kg for all IV doses

[19] = tested on: JIMT-1 human breast xenograft; format: in vivo
Text: The study was terminated on the Study Day 60.

[20] = tested on: JIMT-1 human breast xenograft; test: JIMT1 breast cancer xenograft model (Balb/c nude mice, ADC Example 1); format: in vivo, mouse
Protocol: In this study, 72 mice were inoculated subcutaneously in the right front flank region with 1×10^7 viable JIMT-1 tumour cells resuspended in Matrigel (1:1) on Study Day −15. When tumours reached a tumour volume of approximately 120-150 mm^3, 60 mice with the most similarly sized tumours were randomly assigned to 6 treatment groups on Study Day 0. […] The study was terminated on Study Day 58. The dosing regimen was as follows:
The body weight of all mice in each group was measured and recorded three times weekly throughout the duration of the study. Moreover, the tumour volume was measured (mm^3) and recorded using digital calipers three times weekly throughout the duration of the study. In particular, the length, width, and depth of the tumour were each measured and used to calculate tumour volume (mm^3). The results are shown in FIG. 58, FIG. 59, and FIG. 60.

CNCc1cnc2ccc(-c3ccc(F)c(F)c3OCCc3c(C(O)C(C)(C)C)nn(C)c3C)cn12 (single isomer, unassigned) [compound 13, 1-(4-(2-(2,3-difluoro-6-(3-((methylamino)methyl)imidazo[1,2-a]pyridin-6-yl)phenoxy)ethyl)-1,5-dimethyl-1H-pyrazol-3-yl)-2,2-dimethylpropan-1-ol]
IC50 (SU-DHL-10 cell line): 0.7 nM

CNCc1cnc2ccc(-c3ccc(F)c(F)c3OCCc3c(C(O)C(C)(C)C)nn(C)c3C)cn12 (stereo not shown) [NMT inhibitor 1, 1-(4-(2-(2,3-difluoro-6-(3-((methylamino)methyl)imidazo[1,2-a]pyridin-6-yl)phenoxy)ethyl)-1,5-dimethyl-1H-pyrazol-3-yl)-2,2-dimethylpropan-1-ol]
tumour size ([1]; 2.0 mg/kg, 2 days dosing then 5 day holiday, stopped at day 13): reduced tumour size
body weights of mice ([1]; trastuzumab and ADC 2.5 and 5 mg/kg, NMT inhibitor 1 2 mg/kg): decreased significantly

CN[C@@H]1C[C@H]2O[C@@](C)([C@@H]1OC)n1c3ccccc3c3c4c(c5c6ccccc6n2c5c31)C(=O)NC4 [Staurosporine]
AUC (area under curve) [2]: 113.2
IC50 [2]: 2.9 nM
AUC (area under curve) [3]: 199.9
IC50 [3]: 22.2 nM
AUC (area under curve) [4]: 212.2837
IC50 [4]: 8.9 nM
AUC (area under curve) [5]: 230.6577
IC50 [5]: 8.5 nM
AUC (area under curve) [6]: 201.1356
AUC (area under curve) [7]: 226.6809
AUC (area under curve) [8]: 85.1
AUC (area under curve) [9]: 194.3428
IC50 [9]: 15.8 nM
AUC (area under curve) [10]: 233.3136
AUC (area under curve) [11]: 239.6
IC50 [11]: 22.1 nM
AUC (area under curve) [12]: 170.8729
AUC (area under curve) [13]: 144.7132
AUC (area under curve) [14]: 174.0868
IC50 [14]: 9 nM
AUC (area under curve) [15]: 200.7667
AUC (area under curve) [16]: 158.1701
AUC (area under curve) [17]: 175.472

ifinatamab
tumour volume compared to vehicle alone ([18]; 2.5 mg/kg): no significant difference
ΔTGI (Study Day 17) ([18]; 2.5 mg/kg QW x 2 weeks IV): 8.47%
tumour volume compared to vehicle alone ([18]; 5 mg/kg): no significant difference
ΔTGI (Study Day 17) ([18]; 5 mg/kg QW x 2 weeks IV): 12.44%
LNCaP tumour volume compared to vehicle (LNCaP tumours; 5 mg/kg): no significant effect
Day 28 tumour volume (mean ± SEM) (LNCaP tumours; 5 mg/kg): 551.4 ± 73.1 mm^3
Tumour growth inhibition (TGI, %) (LNCaP tumours; 5 mg/kg): 30.6%
LNCaP tumour volume compared to vehicle (LNCaP tumours; 10 mg/kg): no significant effect
Day 28 tumour volume (mean ± SEM) (LNCaP tumours; 10 mg/kg): 666.56 ± 103.2 mm^3
Tumour growth inhibition (TGI, %) (LNCaP tumours; 10 mg/kg): 13.0%

sacituzumab
tumour volume compared to vehicle alone ([19]; 2.5 mg/kg): no significant difference
ΔTGI (Study Day 28) ([19]; 2.5 mg/kg QW x 2 weeks IV): 12.11%
tumour volume compared to vehicle alone ([19]; 5 mg/kg): significant decrease
ΔTGI (Study Day 28) ([19]; 5 mg/kg QW x 2 weeks IV): 14.44%

sacituzumab govitecan
tumour volume compared to vehicle alone ([19]; 2.5 mg/kg): significant decrease
ΔTGI (Study Day 28) ([19]; 2.5 mg/kg QW x 2 weeks IV): 13.13%
tumour volume compared to vehicle alone ([19]; 5 mg/kg): significant decrease
ΔTGI (Study Day 28) ([19]; 5 mg/kg QW x 2 weeks IV): 23.39%
efficacy of treatment ([19]; Group 4, 5 mg/kg): only partially efficacious

trastuzumab emtansine
tumour volume compared to vehicle alone ([20]; 5 mg/kg IV on Study Days 0, 7, 28 and 35, agent alone): no decrease in tumour volume
mice that completely responded (of 10) ([20]; 5 mg/kg IV, agent alone): no mice
mice that partially responded (of 10) ([20]; 5 mg/kg IV, agent alone): no mice

B1: ifinatamab-DXd (conjugate, chains of the INN, looked up)
VH: QVQLVQSGAEVKKPGSSVKVSCKASGYTFTNYVMHWVRQAPGQGLEWMGYINPYNDDVKYNEKFKGRVTITADESTSTAYMELSSLRSEDTAVYYCARWGYYGSPLYYFDYWGQGTLVTVSS
VL: EIVLTQSPATLSLSPGERATLSCRASSRLIYMHWYQQKPGQAPRPLIYATSNLASGIPARFSGSGSGTDFTLTISSLEPEDFAVYYCQQWNSNPPTFGQGTKVEIK
modifications: deruxtecan (DXd) payload
tumour volume compared to vehicle alone ([18]; 2.5 mg/kg): no significant difference
ΔTGI (Study Day 17) ([18]; 2.5 mg/kg QW x 2 weeks IV): 5.24%
tumour volume compared to vehicle alone ([18]; 5 mg/kg): significantly higher tumour volume
ΔTGI (Study Day 17) ([18]; 5 mg/kg QW x 2 weeks IV): 2.86%
LNCaP tumour volume compared to vehicle (LNCaP tumours; 5 mg/kg): slowed the growth of LNCaP tumours to a lesser extent
Day 28 tumour volume (mean ± SEM) (LNCaP tumours; 5 mg/kg): 364.6 ± 51.7 mm^3
Tumour growth inhibition (TGI, %) (LNCaP tumours; 5 mg/kg): 58.8%
LNCaP tumour volume compared to vehicle (LNCaP tumours; 10 mg/kg): significantly reduced the mean volume of LNCaP tumours
Day 28 tumour volume (mean ± SEM) (LNCaP tumours; 10 mg/kg): 259.5 ± 50.3 mm^3
Tumour growth inhibition (TGI, %) (LNCaP tumours; 10 mg/kg): 75.0%
